PubChem BioAssay AID330 (DTP/NCI, 2004)
Several values for one entry are separate records, joined by “and”; a condition that tells them apart may be missing. Equal values may be shown once. Inconclusive results and toxic doses are left out. How the source made its calls: active means survival T/C of 150% or more; inactive means T/C below 125% in these data.

System: P388 leukemia ip, CD2F1 mice, survival T/C
Assay: NCI In Vivo Anticancer Drug Screen. Data for tumor model P388 Leukemia (intraperitoneal) in CD2F1 (CDF1) mice
Settings: endpoint: median survival time, higher = longer survival
In short: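 Mice carrying the transplanted tumor received test compound or vehicle. Survival was recorded in each group, and the value is the treated-group measurement divided by that of the vehicle-treated control group.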

[1] = dose: 100.0 mg/kg/injection, schedule: Q04DX002 (ip), vehicle: Klucel (hydroxypropylcellulose) (HPC)
[2] = dose: 200.0 mg/kg/injection, schedule: Q04DX002 (ip), vehicle: Klucel (hydroxypropylcellulose) (HPC)
[3] = dose: 400.0 mg/kg/injection, schedule: Q04DX002 (ip), vehicle: Klucel (hydroxypropylcellulose) (HPC)
[4] = dose: 50.0 mg/kg/injection, schedule: Q01DX009 (ip), vehicle: Klucel (hydroxypropylcellulose) (HPC)
[5] = dose: 100.0 mg/kg/injection, schedule: Q01DX009 (ip), vehicle: Klucel (hydroxypropylcellulose) (HPC)
[6] = dose: 200.0 mg/kg/injection, schedule: Q01DX009 (ip), vehicle: Klucel (hydroxypropylcellulose) (HPC)
[7] = dose: 200.0 mg/kg/injection, schedule: Q01DX009 (ip), vehicle: saline with Tween-80
[8] = dose: 50.0 mg/kg/injection, schedule: Q01DX009 (ip), vehicle: saline
[9] = dose: 25.0 mg/kg/injection, schedule: Q01DX005 (ip), vehicle: Klucel (hydroxypropylcellulose) (HPC)
[10] = dose: 50.0 mg/kg/injection, schedule: Q01DX005 (ip), vehicle: Klucel (hydroxypropylcellulose) (HPC)
[11] = dose: 100.0 mg/kg/injection, schedule: Q01DX005 (ip), vehicle: Klucel (hydroxypropylcellulose) (HPC)
[12] = dose: 200.0 mg/kg/injection, schedule: Q01DX005 (ip), vehicle: Klucel (hydroxypropylcellulose) (HPC)
[13] = dose: 25.0 mg/kg/injection, schedule: Q01DX009 (ip), vehicle: Klucel (hydroxypropylcellulose) (HPC)
[14] = dose: 100.0 mg/kg/injection, schedule: Q01DX009 (ip), vehicle: saline
[15] = dose: 200.0 mg/kg/injection, schedule: Q01DX009 (ip), vehicle: saline
[16] = dose: 50.0 mg/kg/injection, schedule: Q04DX003 (ip), vehicle: saline with Tween-80
[17] = dose: 100.0 mg/kg/injection, schedule: Q04DX003 (ip), vehicle: saline with Tween-80

Measured: T/C

CC(=O)OC1CCC2(C)OC(=O)CC2C1 (stereo unspecified)
inactive: dose: 50.0 mg/kg/injection, schedule: Q01DX005 (ip), vehicle: saline with Tween-80 98 % of control | dose: 100.0 mg/kg/injection, schedule: Q01DX005 (ip), vehicle: saline with Tween-80 100 % of control | dose: 200.0 mg/kg/injection, schedule: Q01DX005 (ip), vehicle: saline with Tween-80 100 % of control

CCCNc1ncc(C(=O)O)c(=O)[nH]1
inactive: dose: 1.56 mg/kg/injection, schedule: Q01DX009 (ip), vehicle: saline with Tween-80 104 % of control | dose: 3.12 mg/kg/injection, schedule: Q01DX009 (ip), vehicle: saline with Tween-80 95 % of control | dose: 6.25 mg/kg/injection, schedule: Q01DX009 (ip), vehicle: saline with Tween-80 95 % of control

COc1ccccc1-n1c(SC)nccc1=O
inactive: [1] 100 % of control | [2] 100 % of control | [3] 94 % of control

COc1nc(Nc2ccccc2OC)nc(OC)n1
inactive: [4] 101 % of control | [5] 99 % of control | [6] 100 % of control

CCOC(=O)c1csc(C2OC(COC(=O)c3ccccc3)C(OC(=O)c3ccccc3)C2OC(=O)c2ccccc2)n1 (stereo unspecified)
inactive: dose: 50.0 mg/kg/injection, schedule: Q01DX009 (ip), vehicle: saline with Tween-80 96 % of control | dose: 100.0 mg/kg/injection, schedule: Q01DX009 (ip), vehicle: saline with Tween-80 95 % of control | [7] 93 % of control

O=C1c2ccsc2CN2C(=O)CCC12 (stereo unspecified)
inactive: dose: 60.0 mg/kg/injection, schedule: Q01DX005 (ip), vehicle: saline with Tween-80 95 % of control | dose: 120.0 mg/kg/injection, schedule: Q01DX005 (ip), vehicle: saline with Tween-80 103 % of control | dose: 240.0 mg/kg/injection, schedule: Q01DX005 (ip), vehicle: saline with Tween-80 110 % of control

Oc1[nH]c2ccccc2c1N=NC(=S)SCc1ccccc1
inactive: dose: 12.5 mg/kg/injection, schedule: Q01DX009 (ip), vehicle: saline 89 % of control | dose: 25.0 mg/kg/injection, schedule: Q01DX009 (ip), vehicle: saline 87 % of control | [8] 90 % of control

CC1=C2CC(=O)OC(c3ccoc3)C2(C)CCC1C1(CC(=O)O)C2COC(=O)CC2OC1(C)C (stereo unspecified)
inactive: dose: 0.75 mg/kg/injection, schedule: Q01DX009 (ip), vehicle: saline + alcohol 99 % of control | dose: 1.5 mg/kg/injection, schedule: Q01DX009 (ip), vehicle: saline + alcohol 97 % of control | dose: 3.0 mg/kg/injection, schedule: Q01DX009 (ip), vehicle: saline + alcohol 106 % of control | dose: 6.0 mg/kg/injection, schedule: Q01DX009 (ip), vehicle: saline + alcohol 101 % of control

O=C1c2ccccc2C(=O)N1/N=[N+](\[O-])N1CCOCC1
inactive: [9] 90 % of control | [10] 99 % of control | [11] 90 % of control | [12] 101 % of control

Clc1ccc(Cl)c(NNc2cc(Cl)ccc2Cl)c1
inactive: [13] 96 % of control | [4] 91 % of control | [5] 87 % of control | [6] 102 % of control

O=C(O)c1cc2c(cc1S(=O)(=O)O)C1C(C3C2C2(Cl)C(Cl)=C(Cl)C3(Cl)C2(Cl)Cl)C2(Cl)C(Cl)=C(Cl)C1(Cl)C2(Cl)Cl (stereo unspecified)
inactive: [8] 105 % of control | [14] 100 % of control | [15] 100 % of control

CC(=O)OC1(OC(C)=O)C=C2OCOC2=CC1=O
inactive: dose: 8.75 mg/kg/injection, schedule: Q01DX005 (ip), vehicle: Klucel (hydroxypropylcellulose) (HPC) 91 % of control | dose: 17.5 mg/kg/injection, schedule: Q01DX005 (ip), vehicle: Klucel (hydroxypropylcellulose) (HPC) 103 % of control

CCOC(=O)C1=C(C)O/C(=C/c2ccco2)C1=O
inactive: [13] 103 % of control | [4] 109 % of control | [5] 110 % of control and 111 % of control

CC1=CC(OC2CCCCO2)CC(C)(C)C1 (stereo unspecified)
inactive: [8] 100 % of control | [14] 99 % of control | [15] 101 % of control

CC(C)[C@@H](C)/C=C/[C@@H](C)[C@H]1CC[C@@H]2[C@]1(C)CC[C@H]1[C@]23C=C[C@]2(C[C@@H](O)CC[C@]12C)OO3
inactive: dose: 3.75 mg/kg/injection, schedule: Q01DX005 (ip), vehicle: Klucel (hydroxypropylcellulose) (HPC) 93 % of control | dose: 7.5 mg/kg/injection, schedule: Q01DX005 (ip), vehicle: Klucel (hydroxypropylcellulose) (HPC) 93 % of control | dose: 15.0 mg/kg/injection, schedule: Q01DX005 (ip), vehicle: Klucel (hydroxypropylcellulose) (HPC) 86 % of control | [9] 90 % of control | dose: 30.0 mg/kg/injection, schedule: Q01DX005 (ip), vehicle: Klucel (hydroxypropylcellulose) (HPC) 90 % of control | [10] 89 % of control | [11] 86 % of control | [12] 98 % of control

Cn1c(Br)c(C=O)c2ccccc21
inactive: dose: 100.0 mg/kg/injection, schedule: Q01DX001 (ip), vehicle: Klucel (hydroxypropylcellulose) (HPC) 100 % of control | dose: 200.0 mg/kg/injection, schedule: Q01DX001 (ip), vehicle: Klucel (hydroxypropylcellulose) (HPC) 102 % of control | dose: 400.0 mg/kg/injection, schedule: Q01DX001 (ip), vehicle: Klucel (hydroxypropylcellulose) (HPC) 105 % of control

O=C(CC(c1ccccc1)C1c2ccccc2C(=O)c2ccccc21)c1ccccc1 (stereo unspecified)
inactive: [4] 87 % of control | [5] 93 % of control | [6] 92 % of control | dose: 400.0 mg/kg/injection, schedule: Q01DX009 (ip), vehicle: Klucel (hydroxypropylcellulose) (HPC) 88 % of control

CCO/C=N/c1[nH]c(C)c(C)c1C#N
inactive: [4] 93 % of control | [5] 100 % of control | [6] 105 % of control

CC(=O)N1c2ccccc2Sc2cc(C(O)(C(F)(F)F)C(F)(F)F)ccc21
inactive: dose: 25.0 mg/kg/injection, schedule: Q04DX003 (ip), vehicle: saline with Tween-80 95 % of control | [16] 100 % of control | [17] 100 % of control

NC(C[O-])C(=O)[O-].NCC(=O)[O-].[Mn+3] (stereo unspecified)
inactive: dose: 100.0 mg/kg/injection, schedule: Q04DX002 (ip), vehicle: saline with Tween-80 114 % of control | dose: 200.0 mg/kg/injection, schedule: Q04DX002 (ip), vehicle: saline with Tween-80 113 % of control

CCN(CCP(c1ccccc1)c1ccccc1)CCP(c1ccccc1)c1ccccc1
inactive: dose: 0.75 mg/kg/injection, schedule: Q04DX003 (ip), vehicle: saline with Tween-80 109 % of control | dose: 1.5 mg/kg/injection, schedule: Q04DX003 (ip), vehicle: saline with Tween-80 109 % of control | dose: 3.0 mg/kg/injection, schedule: Q04DX003 (ip), vehicle: saline with Tween-80 118 % of control | dose: 3.13 mg/kg/injection, schedule: Q04DX003 (ip), vehicle: saline with Tween-80 118 % of control | dose: 6.25 mg/kg/injection, schedule: Q04DX003 (ip), vehicle: saline with Tween-80 118 % of control | [17] 100 % of control and 87 % of control

CC1CC(=O)c2cc3oc(=O)n(C)c3cc21 (stereo unspecified)
inactive: [10] 105 % of control | [11] 94 % of control

CSC(=O)NCCCN(C)C
inactive: dose: 50.0 mg/kg/injection, schedule: Q01DX005 (ip), vehicle: saline 106 % of control | dose: 100.0 mg/kg/injection, schedule: Q01DX005 (ip), vehicle: saline 107 % of control | dose: 200.0 mg/kg/injection, schedule: Q01DX005 (ip), vehicle: saline 104 % of control

CC1CCOBO1 (stereo unspecified)
inactive: [1] 98 % of control | [2] 101 % of control | [3] 98 % of control

CCN(CCO)CCNc1ccc(CO)c2sc3cc(Cl)ccc3c(=O)c12
inactive: dose: 88.0 mg/kg/injection, schedule: Q01DX009 (ip), vehicle: saline with Tween-80 105 % of control | dose: 133.0 mg/kg/injection, schedule: Q01DX009 (ip), vehicle: saline with Tween-80 113 % of control | [7] 112 % of control | dose: 300.0 mg/kg/injection, schedule: Q01DX009 (ip), vehicle: saline with Tween-80 102 % of control

CCSc1nc(C)cc(Cl)n1
inactive: [16] 100 % of control | [17] 100 % of control | dose: 200.0 mg/kg/injection, schedule: Q04DX003 (ip), vehicle: saline with Tween-80 113 % of control

C1=Cc2ccccc2C(=C2CCOCC2)c2ccccc21
inactive: [8] 113 % of control | [14] 100 % of control | [15] 94 % of control
